Experimental data as given in patent US20230085307A1, “PYRIDAZINONE COMPOUND AND HERBICIDE” (NISSAN CHEMICAL CORPORATION, priority 2019, published 2023).

What was measured:
[1] = tested on: wild oat; assay: Test Example 5: herbicidal effect by foliage application, plastic box (Table 20, symbol I); assay type: in vivo, wild oat (Avena fatua); details: foliage application, AAH 320 g/ha, three weeks after application
How it was run: (§1)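 Post-emergence foliar test in sterilized diluvial soil. Compound applied as water-diluted emulsion at a predetermined rate to 14-day-old plants; evaluation at three weeks.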

[2] = tested on: oval-leafed pondweed; assay: Test Example 1: herbicidal activity, application before weed generation under submerged conditions (Table 16, symbol C); assay type: in vivo, oval-leafed pondweed (Monochoria vaginalis)
How it was run: (§2)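 Submerged Wagner pots (alluvial soil, 4 cm water) sown with weed seeds and planted with 2.5-leaf rice seedlings; emulsifiable concentrate diluted in water applied to water surface on sowing day. Held in greenhouse at 25-30 °C; injury scored 0-5 by herbicidal rate after three weeks.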

[3] = tested on: chickweed; assay: Test Example 5: herbicidal effect by foliage application, plastic box (Table 20, symbol P); assay type: in vivo, common chickweed (Stellaria media); details: foliage application, AAH 320 g/ha, three weeks after application
How it was run: as §1

[4] = tested on: blackgrass; assay: Test Example 5: herbicidal effect by foliage application, plastic box (Table 20, symbol J); assay type: in vivo, blackgrass (Alopecurus myosuroides); details: foliage application, AAH 320 g/ha, three weeks after application
How it was run: as §1

[5] = tested on: barnyard grass; assay: Test Example 3: herbicidal effect by foliage application, Wagner pot (Table 18, symbol H); assay type: in vivo, barnyard grass (Echinochloa crus-galli)
How it was run: (§3)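 Plants were sown in alluvial soil held under 0.1–0.5 cm standing water and grown 14 days in a greenhouse at 25–30 °C. An emulsifiable formulation, water-diluted to the set dose, was then sprayed onto the foliage, and effects were scored three weeks later using previously defined criteria.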

[6] = tested on: redroot pigweed; assay: Test Example 5: herbicidal effect by foliage application, plastic box (Table 20, symbol N); assay type: in vivo, redroot pigweed (Amaranthus retroflexus); details: foliage application, three weeks after application
How it was run: as §1

[7] = tested on: Japanese bulrush; assay: Test Example 1: herbicidal activity, application before weed generation under submerged conditions (Table 16, symbol B); assay type: in vivo, Japanese bulrush (Schoenoplectus juncoides)
How it was run: as §2

[8] = tested on: late watergrass; assay: Test Example 1: herbicidal activity, application before weed generation under submerged conditions (Table 16, symbol A); assay type: in vivo, late watergrass (Echinochloa oryzicola)
How it was run: as §2

[9] = tested on: barnyard grass; assay: Test Example 5: herbicidal effect by foliage application, plastic box (Table 20, symbol H); assay type: in vivo, barnyard grass (Echinochloa crus-galli); details: foliage application, three weeks after application
How it was run: as §1

[10] = tested on: Chinese sprangletop; assay: Test Example 3: herbicidal effect by foliage application, Wagner pot (Table 18, symbol D); assay type: in vivo, chinese sprangletop (Leptochloa chinensis)
How it was run: as §3

[11] = tested on: lambsquarters; assay: Test Example 5: herbicidal effect by foliage application, plastic box (Table 20, symbol O); assay type: in vivo, lambsquarters (Chenopodium album); details: foliage application, three weeks after application
How it was run: as §1

[12] = tested on: southern crabgrass; assay: Test Example 5: herbicidal effect by foliage application, plastic box (Table 20, symbol F); assay type: in vivo, southern crabgrass (Digitaria ciliaris); details: foliage application, three weeks after application
How it was run: as §1

[13] = tested on: velvetleaf; assay: Test Example 5: herbicidal effect by foliage application, plastic box (Table 20, symbol M); assay type: in vivo, velvetleaf (Abutilon theophrasti); details: foliage application, three weeks after application
How it was run: as §1

[14] = tested on: Italian ryegrass; assay: Test Example 5: herbicidal effect by foliage application, plastic box (Table 20, symbol K); assay type: in vivo, Italian ryegrass (Lolium multiflorum); details: foliage application, AAH 320 g/ha, three weeks after application
How it was run: as §1

[15] = tested on: persian speedwell; assay: Test Example 5: herbicidal effect by foliage application, plastic box (Table 20, symbol R); assay type: in vivo, Persian speedwell (Veronica persica); details: foliage application, AAH 320 g/ha, three weeks after application
How it was run: as §1

[16] = tested on: windgrass; assay: Test Example 5: herbicidal effect by foliage application, plastic box (Table 20, symbol L); assay type: in vivo, windgrass (Apera spica-venti); details: foliage application, AAH 320 g/ha, three weeks after application
How it was run: as §1

[17] = tested on: rice flat sedge; assay: Test Example 3: herbicidal effect by foliage application, Wagner pot (Table 18, symbol E); assay type: in vivo, rice flat sedge (Cyperus iria)
How it was run: as §3

[18] = tested on: green foxtail; assay: Test Example 5: herbicidal effect by foliage application, plastic box (Table 20, symbol G); assay type: in vivo, green foxtail (Setaria viridis); details: foliage application, three weeks after application
How it was run: as §1

[19] = tested on: green foxtail; assay: Test Example 4: herbicidal effect by soil treatment (Table 19, symbol G); assay type: in vivo, green foxtail (Setaria viridis)
How it was run: (§4)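 Scoring uses the grading scale of an earlier test, three weeks post-application. Treatment consists of spraying a diluted emulsion formulation across the surface of sterilized diluvial soil in which seeds are buried near 1.5 cm deep; boxes are kept in a greenhouse between 25° C. and 30° C.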

[20] = tested on: redroot pigweed; assay: Test Example 4: herbicidal effect by soil treatment (Table 19, symbol N); assay type: in vivo, redroot pigweed (Amaranthus retroflexus)
How it was run: as §4

[21] = tested on: velvetleaf; assay: Test Example 4: herbicidal effect by soil treatment (Table 19, symbol M); assay type: in vivo, velvetleaf (Abutilon theophrasti)
How it was run: as §4

[22] = tested on: barnyard grass; assay: Test Example 4: herbicidal effect by soil treatment (Table 19, symbol H); assay type: in vivo, barnyard grass (Echinochloa crus-galli)
How it was run: as §4

[23] = tested on: lambsquarters; assay: Test Example 4: herbicidal effect by soil treatment (Table 19, symbol O); assay type: in vivo, lambsquarters (Chenopodium album)
How it was run: as §4

[24] = tested on: southern crabgrass; assay: Test Example 4: herbicidal effect by soil treatment (Table 19, symbol F); assay type: in vivo, southern crabgrass (Digitaria ciliaris)
How it was run: as §4

[25] = amount of applied herbicide 403 g/ha
[26] = amount of applied herbicide 320 g/ha

Row | SMILES | Herbicidal effect, C: oval-leafed pondweed [2, 26] | herbicidal effect, G: green foxtail [19, 26] | herbicidal effect on H: barnyard grass [5, 26] | N: redroot pigweed, herbicidal effect grade ([6]; 320 g/ha) | Herbicidal effect, B: Japanese bulrush [7, 26] | herbicidal effect, N: redroot pigweed [20, 26] | herbicidal effect, M: velvetleaf [21, 26] | Herbicidal effect, A: late watergrass [8, 26] | herbicidal effect, H: barnyard grass [22, 26] | H: barnyard grass, herbicidal effect grade ([9]; 320 g/ha) | herbicidal effect on D: Chinese sprangletop [10, 26] | herbicidal effect, O: lambsquarters [23, 26] | O: lambsquarters, herbicidal effect grade ([11]; 320 g/ha) | F: southern crabgrass, herbicidal effect grade ([12]; 320 g/ha) | herbicidal effect, F: southern crabgrass [24, 26] | M: velvetleaf, herbicidal effect grade ([13]; 320 g/ha) | herbicidal effect on E: rice flat sedge [17, 26] | G: green foxtail, herbicidal effect grade ([18]; 320 g/ha) | further results
1 | COc1cn(C)nc1-c1sc2ccccc2c1-c1c(O)c(C)nn(C)c1=O [1-105] | – | – | – | – | – | – | – | – | – | – | – | – | – | – | – | – | – | – | I: wild oat, herbicidal effect [1]: 3 (Herbicidal rate of 40% or more and less than 70%); Herbicidal effect on C: oval-leafed pondweed (grade 0-5) ([2]; 320 g/ha applied herbicide): 2 (Herbicidal rate of 20% or more and less than 40%); P: chickweed, herbicidal effect [3]: 5 (Herbicidal rate of 90% or more (almost completely withered)); J: blackgrass, herbicidal effect [4]: 0 (Herbicidal rate of 5% or less (almost no effect)); herbicidal effect on H (barnyard grass), rating 0-5 ([5]; 320 g/ha): 4 (Herbicidal rate of 70% or more and less than 90%); N: redroot pigweed, herbicidal effect ([6]; AAH 320 g/ha): 5 (Herbicidal rate of 90% or more (almost completely withered)); Herbicidal effect on B: Japanese bulrush (grade 0-5) ([7]; 320 g/ha applied herbicide): 3 (Herbicidal rate of 40% or more and less than 70%); Herbicidal effect on A: late watergrass (grade 0-5) ([8]; 320 g/ha applied herbicide): 3 (Herbicidal rate of 40% or more and less than 70%); H: barnyard grass, herbicidal effect ([9]; AAH 320 g/ha): 1 (Herbicidal rate of 5% or more and less than 20%); herbicidal effect on D (Chinese sprangletop), rating 0-5 ([10]; 320 g/ha): 3 (Herbicidal rate of 40% or more and less than 70%); O: lambsquarters, herbicidal effect ([11]; AAH 320 g/ha): 4 (Herbicidal rate of 70% or more and less than 90%); F: southern crabgrass, herbicidal effect ([12]; AAH 320 g/ha): 3 (Herbicidal rate of 40% or more and less than 70%); M: velvetleaf, herbicidal effect ([13]; AAH 320 g/ha): 3 (Herbicidal rate of 40% or more and less than 70%); K: Italian ryegrass, herbicidal effect [14]: 0 (Herbicidal rate of 5% or less (almost no effect)); R: persian speedwell, herbicidal effect [15]: 4 (Herbicidal rate of 70% or more and less than 90%); L: windgrass, herbicidal effect [16]: 4 (Herbicidal rate of 70% or more and less than 90%); herbicidal effect on E (rice flat sedge), rating 0-5 ([17]; 320 g/ha): 4 (Herbicidal rate of 70% or more and less than 90%); G: green foxtail, herbicidal effect ([18]; AAH 320 g/ha): 3 (Herbicidal rate of 40% or more and less than 70%)
2 | CC[S+]([O-])c1cccc(-c2sc3ccc(F)cc3c2-c2c(O)c(C)nn(C)c2=O)c1 (stereo not drawn) [2-460] | – | – | – | – | – | – | – | – | – | – | – | – | – | – | – | – | – | – | Herbicidal effect, C: oval-leafed pondweed [2, 25]: 0 (Herbicidal rate of 5% or less (almost no effect)); herbicidal effect, G: green foxtail [19, 25]: 0 (Herbicidal rate of 5% or less (almost no effect)); herbicidal effect on H: barnyard grass [5, 25]: 4 (Herbicidal rate of 70% or more and less than 90%); N: redroot pigweed, herbicidal effect grade ([6]; 403 g/ha): 3 (Herbicidal rate of 40% or more and less than 70%); Herbicidal effect, B: Japanese bulrush [7, 25]: 0 (Herbicidal rate of 5% or less (almost no effect)); herbicidal effect, N: redroot pigweed [20, 25]: 3 (Herbicidal rate of 40% or more and less than 70%); herbicidal effect, M: velvetleaf [21, 25]: 0 (Herbicidal rate of 5% or less (almost no effect)); Herbicidal effect, A: late watergrass [8, 25]: 3 (Herbicidal rate of 40% or more and less than 70%); herbicidal effect, H: barnyard grass [22, 25]: 0 (Herbicidal rate of 5% or less (almost no effect)); H: barnyard grass, herbicidal effect grade ([9]; 403 g/ha): 3 (Herbicidal rate of 40% or more and less than 70%); herbicidal effect on D: Chinese sprangletop [10, 25]: 0 (Herbicidal rate of 5% or less (almost no effect)); herbicidal effect, O: lambsquarters [23, 25]: 3 (Herbicidal rate of 40% or more and less than 70%); O: lambsquarters, herbicidal effect grade ([11]; 403 g/ha): 3 (Herbicidal rate of 40% or more and less than 70%); F: southern crabgrass, herbicidal effect grade ([12]; 403 g/ha): 0 (Herbicidal rate of 5% or less (almost no effect)); herbicidal effect, F: southern crabgrass [24, 25]: 0 (Herbicidal rate of 5% or less (almost no effect)); M: velvetleaf, herbicidal effect grade ([13]; 403 g/ha): 3 (Herbicidal rate of 40% or more and less than 70%); herbicidal effect on E: rice flat sedge [17, 25]: 0 (Herbicidal rate of 5% or less (almost no effect)); G: green foxtail, herbicidal effect grade ([18]; 403 g/ha): 2 (Herbicidal rate of 20% or more and less than 40%)
3 | Cc1nn(C)c(=O)c(-c2c(-c3ccoc3)sc3ccc(F)cc23)c1O [2-461] | 0 (Herbicidal rate of 5% or less (almost no effect)) | 0 (Herbicidal rate of 5% or less (almost no effect)) | 4 (Herbicidal rate of 70% or more and less than 90%) | 4 (Herbicidal rate of 70% or more and less than 90%) | 0 (Herbicidal rate of 5% or less (almost no effect)) | 2 (Herbicidal rate of 20% or more and less than 40%) | 0 (Herbicidal rate of 5% or less (almost no effect)) | 3 (Herbicidal rate of 40% or more and less than 70%) | 0 (Herbicidal rate of 5% or less (almost no effect)) | 3 (Herbicidal rate of 40% or more and less than 70%) | 0 (Herbicidal rate of 5% or less (almost no effect)) | 1 (Herbicidal rate of 5% or more and less than 20%) | 3 (Herbicidal rate of 40% or more and less than 70%) | 2 (Herbicidal rate of 20% or more and less than 40%) | 0 (Herbicidal rate of 5% or less (almost no effect)) | 4 (Herbicidal rate of 70% or more and less than 90%) | 4 (Herbicidal rate of 70% or more and less than 90%) | 3 (Herbicidal rate of 40% or more and less than 70%) | –
4 | C#CCSc1ccc(-c2sc3ccc(F)cc3c2-c2c(O)c(C)nn(C)c2=O)cc1 [2-465] | 3 (Herbicidal rate of 40% or more and less than 70%) | 0 (Herbicidal rate of 5% or less (almost no effect)) | 5 (Herbicidal rate of 90% or more (almost completely withered)) | 5 (Herbicidal rate of 90% or more (almost completely withered)) | 2 (Herbicidal rate of 20% or more and less than 40%) | 5 (Herbicidal rate of 90% or more (almost completely withered)) | 0 (Herbicidal rate of 5% or less (almost no effect)) | 4 (Herbicidal rate of 70% or more and less than 90%) | 0 (Herbicidal rate of 5% or less (almost no effect)) | 5 (Herbicidal rate of 90% or more (almost completely withered)) | 3 (Herbicidal rate of 40% or more and less than 70%) | 4 (Herbicidal rate of 70% or more and less than 90%) | 5 (Herbicidal rate of 90% or more (almost completely withered)) | 2 (Herbicidal rate of 20% or more and less than 40%) | 0 (Herbicidal rate of 5% or less (almost no effect)) | 4 (Herbicidal rate of 70% or more and less than 90%) | 5 (Herbicidal rate of 90% or more (almost completely withered)) | 5 (Herbicidal rate of 90% or more (almost completely withered)) | –
